Source: US10617693B2, “Methods of treating and/or preventing actinic keratosis” (Athenex, Inc., priority 2017, dated 2020)

System: subjects with AK on the face or scalp
Assay: Phase 2a study KX01-AK-002: local skin reactions (grade 0 not present to 4 worst) and adverse events, 0.5 mg KX-01 on 25 cm^2
Format: in vivo, human
Source text: An ongoing Phase 2a, open-label, multicenter, activity and safety study of KX-01 administered topically in subjects with AK on the face or scalp is described herein. […] Secondary objectives are to assess the activity of KX-01 administered topically during Days 1-57 based on reduction of AK lesion counts from baseline, assess the safety and tolerability and pharmacokinetics, and contrast the dose regimens (5-day treatment with 3-day treatment) in terms of activity and safety in subjects with AK on the face or scalp. This uncontrolled, nonrandomized trial is being conducted at 16 investigational sites in the United States. Enrollment is sequential for 2 cohorts of approximately 80 subjects each. Enrollment is closed for Cohort 1 and ongoing for Cohort 2. The two treatment cohorts are summarized below: • Cohort 1: 0.5 mg KX-01 administered topically to a contiguous treatment area of 25 cm^2 with 4-8 clinically typical AK lesions for 5 consecutive days • Cohort 2: 0.5 mg KX-01 administered topically to a contiguous treatment area of 25 cm^2 with 4-8 clinically typical AK lesions for 3 consecutive days
0.5 mg KX-01 is administered topically to an area of 25 cm^2 on the face or scalp by site staff on treatment days. […] AK lesion counts are recorded at baseline, days 8, 15, 29, and 57. […] Standardized photography of treatment area is performed at baseline, day 8 and day 57. Plasma samples are being collected at preplanned time points on days 1 and 5 for Cohort 1, and on days 1 and 3 for Cohort 2.
Absence or presence of hyperpigmentation, hypopigmentation and scarring are also assessed. Application site reactions not classified as LSRs are reported as AEs. […] LSRs and AEs are reported separately. All LSRs, pigmentation, and scarring in the treatment area will be followed to resolution or stabilization.
The range of possible composite scores is 0-24.
The Phase 2a trial described in Example 2a was completed with 84 eligible subjects enrolled in each of two cohorts: one cohort was subjected to the treatment for 5 consecutive days, and the other cohort was subjected to the treatment for 3 consecutive days. The results are described below and in FIG. 5.

SMILES: O=C(Cc1ccc(-c2ccc(OCCN3CCOCC3)cc2)cn1)NCc1ccccc1 [KX-01]
- Crusting maximal post-baseline grade 0, subjects (%) (3-day, N = 84): 58 (69%)
- Crusting maximal post-baseline grade 1, subjects (%) (3-day, N = 84): 16 (19%)
- Crusting maximal post-baseline grade 2, subjects (%) (3-day, N = 84): 9 (11%)
- Crusting maximal post-baseline grade 3, subjects (%) (3-day, N = 84): 1 (1%)
- Crusting maximal post-baseline grade 4, subjects (%) (3-day, N = 84): 0 (0%)
- Erosion/Ulceration maximal post-baseline grade 0, subjects (%) (3-day, N = 84): 79 (94%)
- Erosion/Ulceration maximal post-baseline grade 1, subjects (%) (3-day, N = 84): 5 (6%)
- Erosion/Ulceration maximal post-baseline grade 2, subjects (%) (3-day, N = 84): 0 (0%)
- Erosion/Ulceration maximal post-baseline grade 3, subjects (%) (3-day, N = 84): 0 (0%)
- Erosion/Ulceration maximal post-baseline grade 4, subjects (%) (3-day, N = 84): 0 (0%)
- Erythema maximal post-baseline grade 0, subjects (%) (3-day, N = 84): 30 (36%)
- Erythema maximal post-baseline grade 1, subjects (%) (3-day, N = 84): 22 (26%)
- Erythema maximal post-baseline grade 2, subjects (%) (3-day, N = 84): 26 (31%)
- Erythema maximal post-baseline grade 3, subjects (%) (3-day, N = 84): 6 (7%)
- Erythema maximal post-baseline grade 4, subjects (%) (3-day, N = 84): 0 (0%)
- Flaking/Scaling maximal post-baseline grade 0, subjects (%) (3-day, N = 84): 39 (46%)
- Flaking/Scaling maximal post-baseline grade 1, subjects (%) (3-day, N = 84): 18 (21%)
- Flaking/Scaling maximal post-baseline grade 2, subjects (%) (3-day, N = 84): 19 (23%)
- Flaking/Scaling maximal post-baseline grade 3, subjects (%) (3-day, N = 84): 8 (10%)
- Flaking/Scaling maximal post-baseline grade 4, subjects (%) (3-day, N = 84): 0 (0%)
- Swelling maximal post-baseline grade 0, subjects (%) (3-day, N = 84): 76 (90%)
- Swelling maximal post-baseline grade 1, subjects (%) (3-day, N = 84): 8 (10%)
- Swelling maximal post-baseline grade 2, subjects (%) (3-day, N = 84): 0 (0%)
- Swelling maximal post-baseline grade 3, subjects (%) (3-day, N = 84): 0 (0%)
- Swelling maximal post-baseline grade 4, subjects (%) (3-day, N = 84): 0 (0%)
- Vesiculation/Pustulation maximal post-baseline grade 0, subjects (%) (3-day, N = 84): 83 (99%)
- Vesiculation/Pustulation maximal post-baseline grade 1, subjects (%) (3-day, N = 84): 0 (0%)
- Vesiculation/Pustulation maximal post-baseline grade 2, subjects (%) (3-day, N = 84): 1 (1%)
- Vesiculation/Pustulation maximal post-baseline grade 3, subjects (%) (3-day, N = 84): 0 (0%)
- Vesiculation/Pustulation maximal post-baseline grade 4, subjects (%) (3-day, N = 84): 0 (0%)
- Local safety profile compared to Picato (5-day treatment, cross-study): more benign local safety profile
- Crusting maximal post-baseline grade 0, subjects (%) (5-day, N = 84): 51 (61%)
- Crusting maximal post-baseline grade 1, subjects (%) (5-day, N = 84): 25 (30%)
- Crusting maximal post-baseline grade 2, subjects (%) (5-day, N = 84): 8 (10%)
- Crusting maximal post-baseline grade 3, subjects (%) (5-day, N = 84): 0 (0%)
- Crusting maximal post-baseline grade 4, subjects (%) (5-day, N = 84): 0 (0%)
- Erosion/Ulceration maximal post-baseline grade 0, subjects (%) (5-day, N = 84): 71 (85%)
- Erosion/Ulceration maximal post-baseline grade 1, subjects (%) (5-day, N = 84): 12 (14%)
- Erosion/Ulceration maximal post-baseline grade 2, subjects (%) (5-day, N = 84): 1 (1%)
- Erosion/Ulceration maximal post-baseline grade 3, subjects (%) (5-day, N = 84): 0 (0%)
- Erosion/Ulceration maximal post-baseline grade 4, subjects (%) (5-day, N = 84): 0 (0%)
- Erythema maximal post-baseline grade 0, subjects (%) (5-day, N = 84): 15 (18%)
- Erythema maximal post-baseline grade 1, subjects (%) (5-day, N = 84): 16 (19%)
- Erythema maximal post-baseline grade 2, subjects (%) (5-day, N = 84): 35 (42%)
- Erythema maximal post-baseline grade 3, subjects (%) (5-day, N = 84): 17 (20%)
- Erythema maximal post-baseline grade 4, subjects (%) (5-day, N = 84): 1 (1%)
- Flaking/Scaling maximal post-baseline grade 0, subjects (%) (5-day, N = 84): 33 (39%)
- Flaking/Scaling maximal post-baseline grade 1, subjects (%) (5-day, N = 84): 10 (12%)
- Flaking/Scaling maximal post-baseline grade 2, subjects (%) (5-day, N = 84): 24 (29%)
- Flaking/Scaling maximal post-baseline grade 3, subjects (%) (5-day, N = 84): 16 (19%)
- Flaking/Scaling maximal post-baseline grade 4, subjects (%) (5-day, N = 84): 1 (1%)
- Swelling maximal post-baseline grade 0, subjects (%) (5-day, N = 84): 66 (79%)
- Swelling maximal post-baseline grade 1, subjects (%) (5-day, N = 84): 16 (19%)
- Swelling maximal post-baseline grade 2, subjects (%) (5-day, N = 84): 1 (1%)
- Swelling maximal post-baseline grade 3, subjects (%) (5-day, N = 84): 1 (1%)
- Swelling maximal post-baseline grade 4, subjects (%) (5-day, N = 84): 0 (0%)
- Vesiculation/Pustulation maximal post-baseline grade 0, subjects (%) (5-day, N = 84): 80 (95%)
- Vesiculation/Pustulation maximal post-baseline grade 1, subjects (%) (5-day, N = 84): 4 (5%)
- Vesiculation/Pustulation maximal post-baseline grade 2, subjects (%) (5-day, N = 84): 0 (0%)
- Vesiculation/Pustulation maximal post-baseline grade 3, subjects (%) (5-day, N = 84): 0 (0%)
- Vesiculation/Pustulation maximal post-baseline grade 4, subjects (%) (5-day, N = 84): 0 (0%)
- Crusting maximal post-baseline grade 0, subjects (%) (5-day, interim N = 67): 41 (61%)
- Crusting maximal post-baseline grade 1, subjects (%) (5-day, interim N = 67): 20 (30%)
- Crusting maximal post-baseline grade 2, subjects (%) (5-day, interim N = 67): 6 (9%)
- Crusting maximal post-baseline grade 3, subjects (%) (5-day, interim N = 67): 0 (0%)
- Crusting maximal post-baseline grade 4, subjects (%) (5-day, interim N = 67): 0 (0%)
- Erosion/Ulceration maximal post-baseline grade 0, subjects (%) (5-day, interim N = 67): 57 (85%)
- Erosion/Ulceration maximal post-baseline grade 1, subjects (%) (5-day, interim N = 67): 9 (13%)
- Erosion/Ulceration maximal post-baseline grade 2, subjects (%) (5-day, interim N = 67): 1 (1%)
- Erosion/Ulceration maximal post-baseline grade 3, subjects (%) (5-day, interim N = 67): 0 (0%)
- Erosion/Ulceration maximal post-baseline grade 4, subjects (%) (5-day, interim N = 67): 0 (0%)
- Erythema maximal post-baseline grade 0, subjects (%) (5-day, interim N = 67): 7 (10%)
- Erythema maximal post-baseline grade 1, subjects (%) (5-day, interim N = 67): 16 (24%)
- Erythema maximal post-baseline grade 2, subjects (%) (5-day, interim N = 67): 32 (48%)
- Erythema maximal post-baseline grade 3, subjects (%) (5-day, interim N = 67): 12 (18%)
- Erythema maximal post-baseline grade 4, subjects (%) (5-day, interim N = 67): 0 (0%)
- Flaking/Scaling maximal post-baseline grade 0, subjects (%) (5-day, interim N = 67): 20 (30%)
- Flaking/Scaling maximal post-baseline grade 1, subjects (%) (5-day, interim N = 67): 14 (21%)
- Flaking/Scaling maximal post-baseline grade 2, subjects (%) (5-day, interim N = 67): 20 (30%)
- Flaking/Scaling maximal post-baseline grade 3, subjects (%) (5-day, interim N = 67): 13 (19%)
- Flaking/Scaling maximal post-baseline grade 4, subjects (%) (5-day, interim N = 67): 0 (0%)
- Swelling maximal post-baseline grade 0, subjects (%) (5-day, interim N = 67): 53 (79%)
- Swelling maximal post-baseline grade 1, subjects (%) (5-day, interim N = 67): 12 (18%)
- Swelling maximal post-baseline grade 2, subjects (%) (5-day, interim N = 67): 1 (1%)
- Swelling maximal post-baseline grade 3, subjects (%) (5-day, interim N = 67): 1 (1%)
- Swelling maximal post-baseline grade 4, subjects (%) (5-day, interim N = 67): 0 (0%)
- Vesiculation/Pustulation maximal post-baseline grade 0, subjects (%) (5-day, interim N = 67): 64 (96%)
- Vesiculation/Pustulation maximal post-baseline grade 1, subjects (%) (5-day, interim N = 67): 3 (4%)
- Vesiculation/Pustulation maximal post-baseline grade 2, subjects (%) (5-day, interim N = 67): 0 (0%)
- Vesiculation/Pustulation maximal post-baseline grade 3, subjects (%) (5-day, interim N = 67): 0 (0%)
- Vesiculation/Pustulation maximal post-baseline grade 4, subjects (%) (5-day, interim N = 67): 0 (0%)
- Day from which LSRs were generally observable (Cohort 1 (5-day)): 3 days
- Subjects with erosion/ulceration (Cohort 1 (5-day), 67 subjects with day 57 visit): 9
